ChEMBL document CHEMBL1201862, “PubChem BioAssay data set” (2004)
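Values below derive from 48-hour exposures of cells grown in 96-well plates, with endpoints linearly interpolated between the two concentrations bracketing the appropriate inhibition level. At the GI50, growth is halved.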 Activity calls are given as the source filed them. Cut-off read from the data, not from the text of the source: active = GI50 up to about 1.1 µM and inactive = higher.

What was measured:
Assay in all cases: growth of human tumour cells (NCI), 48 h
TK-10 = test system: TK-10
KM12 = test system: KM12
SW-620 = test system: SW-620
NCI-H522 = test system: NCI-H522
HL-60 = test system: HL-60
EKVX = test system: EKVX
SN12C = test system: SN12C
HCC 2998 = test system: HCC 2998
SF-539 = test system: SF-539
HT-29 = test system: HT-29
HCT-116 = test system: HCT-116
COLO 205 = test system: COLO 205
CCRF-CEM = test system: CCRF-CEM
IGROV-1 = test system: IGROV-1
U-251 = test system: U-251
OVCAR-3 = test system: OVCAR-3
MDA-MB-231 = test system: MDA-MB-231
T47D = test system: T47D
DU-145 = test system: DU-145
NCI/ADR-RES = test system: NCI/ADR-RES

| Structure (SMILES) | GI50 (TK-10) | GI50 (KM12) | GI50 (SW-620) | GI50 (NCI-H522) | GI50 (HL-60) | GI50 (EKVX) | GI50 (SN12C) | GI50 (HCC 2998) | GI50 (SF-539) | GI50 (HT-29) | GI50 (HCT-116) | GI50 (COLO 205) | GI50 (CCRF-CEM) | GI50 (IGROV-1) | GI50 (U-251) | GI50 (OVCAR-3) | GI50 (MDA-MB-231) | GI50 (T47D) | GI50 (DU-145) | GI50 (NCI/ADR-RES) |
| --- | --- | --- | --- | --- | --- | --- | --- | --- | --- | --- | --- | --- | --- | --- | --- | --- | --- | --- | --- | --- |
| CCOc1ccccc1NC(=O)CC(C(=O)OC)C(=O)C(=O)OC (stereo unspecified) | > 100 µM (inactive) | > 100 µM (inactive) | > 100 µM (inactive) | > 100 µM (inactive) | > 100 µM (inactive) | > 100 µM (inactive) | > 100 µM (inactive) | > 100 µM (inactive) | > 100 µM (inactive) | > 100 µM (inactive) | > 100 µM (inactive) | > 100 µM (inactive) | > 100 µM (inactive) | > 100 µM (inactive) | > 100 µM (inactive) | > 100 µM (inactive) |  |  |  |  |
| N=C(N)NS(=O)(=O)c1ccc(NC(=O)c2cccn3c(=O)c4ccccc4nc23)cc1 | 61 µM (inactive) | 15.9 µM (inactive) | 51.5 µM (inactive) | 35 µM (inactive) | 24.5 µM (inactive) | > 100 µM (inactive) | 70.8 µM (inactive) | 85.7 µM (inactive) | > 100 µM (inactive) | 23.2 µM (inactive) | 40.8 µM (inactive) | 18.2 µM (inactive) | 35.6 µM (inactive) | 56 µM (inactive) | > 100 µM (inactive) | > 100 µM (inactive) |  |  |  |  |
| O=S(=O)(SCc1ccccc1)C(c1ccccc1)c1ccccc1 | > 100 µM (inactive) | 34.1 µM (inactive) | 7.4 µM (inactive) | 26.6 µM (inactive) | 5.52 µM (inactive) | 60.3 µM (inactive) | 24.1 µM (inactive) | > 100 µM (inactive) | 17.2 µM (inactive) | 28.6 µM (inactive) | 33.4 µM (inactive) | 19.6 µM (inactive) | 4.21 µM (inactive) | 32.7 µM (inactive) | 32.9 µM (inactive) | 29.1 µM (inactive) |  |  |  |  |
| CCOP(=O)(OCC)[C@]12C[C@@H](C)C=C[C@H]1COC2=O | > 100 µM (inactive) | > 100 µM (inactive) | > 100 µM (inactive) | > 100 µM (inactive) |  | > 100 µM (inactive) | > 100 µM (inactive) | > 100 µM (inactive) | > 100 µM (inactive) |  | > 100 µM (inactive) | > 100 µM (inactive) | > 100 µM (inactive) |  | > 100 µM (inactive) | > 100 µM (inactive) | > 100 µM (inactive) | > 100 µM (inactive) | > 100 µM (inactive) |  |
| Cc1nc(C(N)=S)sc1C(=O)CC(=O)C(=O)Nc1ccc(Br)cc1 | > 100 µM (inactive) | > 100 µM (inactive) | > 100 µM (inactive) | 66.4 µM (inactive) | > 100 µM (inactive) | > 100 µM (inactive) | > 100 µM (inactive) |  | > 100 µM (inactive) | > 100 µM (inactive) | > 100 µM (inactive) |  | > 100 µM (inactive) | > 100 µM (inactive) | > 100 µM (inactive) | > 100 µM (inactive) | > 100 µM (inactive) | > 100 µM (inactive) |  | > 100 µM (inactive) |
| COc1ccc(C#CC(=O)O)c(OC)c1 | > 100 µM (inactive) | > 100 µM (inactive) | > 100 µM (inactive) |  | > 100 µM (inactive) | > 100 µM (inactive) | > 100 µM (inactive) | > 100 µM (inactive) | > 100 µM (inactive) | > 100 µM (inactive) | > 100 µM (inactive) | > 100 µM (inactive) | > 100 µM (inactive) |  | > 100 µM (inactive) | > 100 µM (inactive) | > 100 µM (inactive) | > 100 µM (inactive) | > 100 µM (inactive) | > 100 µM (inactive) |
| COc1ccc2c(c1)C/C(=C\c1cccc3ccccc13)C2=O | 6.07 µM (inactive) | 5.41 µM (inactive) | 3.98 µM (inactive) |  | 4.95 µM (inactive) | 18.5 µM (inactive) | 8.87 µM (inactive) | 5.04 µM (inactive) | 7.33 µM (inactive) | 4.91 µM (inactive) |  |  | 2.65 µM (inactive) | 17.3 µM (inactive) | 8.71 µM (inactive) | 13.4 µM (inactive) |  |  |  | 4.66 µM (inactive) |
| COc1ccc(N2C(=O)C3c4[nH]c5ccccc5c4C4CCCCC4C3C2=O)cc1 (stereo unspecified) | 21.3 µM (inactive) | 38.5 µM (inactive) | 29.1 µM (inactive) | 18 µM (inactive) | 16.2 µM (inactive) | 17.3 µM (inactive) | 25.5 µM (inactive) | 18.3 µM (inactive) | 14.5 µM (inactive) | 23.4 µM (inactive) | 7.11 µM (inactive) | 3.94 µM (inactive) | 11.9 µM (inactive) | 24.7 µM (inactive) | 15.6 µM (inactive) | > 100 µM (inactive) |  |  |  |  |
| C=C1C(=O)OC2CC(C)C3C=CC(=O)C3CC12 (stereo unspecified) | 3.16 µM (inactive) | 5.64 µM (inactive) | 0.998 µM (active) | 0.61 µM (active) | 0.891 µM (active) | 12.1 µM (inactive) | 2.02 µM (inactive) | 4.73 µM (inactive) | 2.08 µM (inactive) | 1.72 µM (inactive) | 1.26 µM (inactive) | 1.52 µM (inactive) | 0.428 µM (active) | 3.62 µM (inactive) | 6.76 µM (inactive) | 5.13 µM (inactive) | 1.89 µM (inactive) | 2.34 µM (inactive) | 5.41 µM (inactive) |  |
| COc1ccc(N2C(=O)c3cc([N+](=O)[O-])cnc3S2(=O)=O)cc1 | > 100 µM (inactive) | > 100 µM (inactive) | > 100 µM (inactive) | > 100 µM (inactive) | > 100 µM (inactive) | > 100 µM (inactive) | > 100 µM (inactive) | > 100 µM (inactive) |  | > 100 µM (inactive) | > 100 µM (inactive) | > 100 µM (inactive) | > 100 µM (inactive) | > 100 µM (inactive) | > 100 µM (inactive) | > 100 µM (inactive) | > 100 µM (inactive) |  | > 100 µM (inactive) | > 100 µM (inactive) |
| C=C(C)C[C@H](Sc1nc2ccccc2s1)[C@H](C)O | 71.3 µM (inactive) | 41.2 µM (inactive) | 45.4 µM (inactive) | 23.8 µM (inactive) | 18.9 µM (inactive) | 32.4 µM (inactive) | 45.4 µM (inactive) | 59.2 µM (inactive) | 41.8 µM (inactive) | 31.1 µM (inactive) | 39.4 µM (inactive) | 35.5 µM (inactive) |  | > 100 µM (inactive) | 37.5 µM (inactive) | 18.8 µM (inactive) | 73.6 µM (inactive) |  | 88.1 µM (inactive) | 33 µM (inactive) |
| CC1CC2(S(=O)(=O)c3ccccc3)ON1CC2S(=O)(=O)c1ccccc1 (stereo unspecified) | > 100 µM (inactive) | > 100 µM (inactive) | > 100 µM (inactive) | 70.8 µM (inactive) | > 100 µM (inactive) | > 100 µM (inactive) | > 100 µM (inactive) | > 100 µM (inactive) | 42.3 µM (inactive) | > 100 µM (inactive) | > 100 µM (inactive) | > 100 µM (inactive) | > 100 µM (inactive) | > 100 µM (inactive) | > 100 µM (inactive) | > 100 µM (inactive) |  |  |  |  |
| O=C(CC/C(CC(=O)c1ccc(Br)cc1)=N\O)Nc1ccc(Cl)c(Cl)c1 | 18 µM (inactive) | 67.8 µM (inactive) | 45.2 µM (inactive) | 20.5 µM (inactive) | 19.6 µM (inactive) | 29.3 µM (inactive) | > 100 µM (inactive) | > 100 µM (inactive) | > 100 µM (inactive) | 43.5 µM (inactive) | > 100 µM (inactive) | 37.8 µM (inactive) | 37.6 µM (inactive) | 60.7 µM (inactive) | > 100 µM (inactive) | 57.5 µM (inactive) |  |  |  |  |
| O=C1/C(=C\c2ccc(Cl)cc2Cl)Sc2scc(-c3ccc(O)c(O)c3)[n+]21 | 12.7 µM (inactive) | 15.1 µM (inactive) | 14 µM (inactive) | 16.5 µM (inactive) | 8.77 µM (inactive) | 19.9 µM (inactive) | 15.9 µM (inactive) | 17 µM (inactive) | 17.1 µM (inactive) | 16.7 µM (inactive) | 14.5 µM (inactive) | 19 µM (inactive) | 17.7 µM (inactive) | 21.2 µM (inactive) | 11.9 µM (inactive) | 6.47 µM (inactive) | 16.5 µM (inactive) |  | 18.3 µM (inactive) | 15.1 µM (inactive) |
| N#Cc1nc(Cc2cccs2)oc1N | > 100 µM (inactive) | > 100 µM (inactive) | > 100 µM (inactive) |  | > 100 µM (inactive) | > 100 µM (inactive) | > 100 µM (inactive) |  |  | > 100 µM (inactive) | > 100 µM (inactive) |  | 47.5 µM (inactive) | > 100 µM (inactive) | > 100 µM (inactive) |  | > 100 µM (inactive) |  | > 100 µM (inactive) |  |
| C/C(=N\Nc1nc2ccccc2n1C)c1ccncn1 | 1.52 µM (inactive) | 0.265 µM (active) | < 0.018 µM (active) | 0.0393 µM (active) | < 0.01 µM (active) | < 0.02 µM (active) | 0.0243 µM (active) | 3.39 µM (inactive) | 0.313 µM (active) | < 0.0259 µM (active) | < 0.01 µM (active) | < 0.01 µM (active) | 0.0618 µM (active) | 0.0233 µM (active) | 0.0904 µM (active) |  | 0.0389 µM (active) | < 0.0501 µM (active) |  | 0.0395 µM (active) |
